Earlier results as cited in US6794370B2, “Method for treating cancer using camptothecin derivatives and 5-fluorouracil” (priority 1999, dated 2004).
Like-named read-outs stand apart in the source and are kept apart here.

Legend:
colorectal cancer [1] = details: metastatic disease, compared to no antitumour therapy
colorectal cancer [2] = tested on: colorectal cancer
[3] = tested on: metastatic colorectal cancer; details: 125 mg/m^2 intravenously
colorectal cancer [4] = details: compared with supportive care only

| Compound | survival time (colorectal cancer [1]) [months] | median survival time (colorectal cancer [2]; bolus administration) [months] | response rate (colorectal cancer [2]; bolus administration) [%] | median survival time (colorectal cancer [2]; infusional administration) [months] | response rate (colorectal cancer [2]; infusional administration) [%] | median survival ([3]; first of two studies) [months] | response rate ([3]; first of two studies) [%] | median survival ([3]; second of two studies) [months] | response rate ([3]; second of two studies) [%] | quality of life (colorectal cancer [4]) | survival (colorectal cancer [4]) |
| --- | --- | --- | --- | --- | --- | --- | --- | --- | --- | --- | --- |
| O=c1[nH]cc(F)c(=O)[nH]1 [5-FU, 5-fluorouracil] | 11 | 11.3 | 14 | 12.1 | 22 |  |  |  |  |  |  |
| Irinotecan [CPT-11] |  |  |  |  |  | 12.1 | 32 | 11.8 | 26 | better quality of life | longer survival |
